Tested on: mouse
Assay: Marble burying test in the mouse
Type: in vivo
Details: for Number of marbles covered by sawdust, mean ± s.e.m.: 15 mice per group
Text: More preferably, psychotropic activity can be tested using the Marble Burying Test in the mouse. The method, which detects anxiolytic/tranquillizing activity, follows that described by Broekkamp et al (Eur. J. Pharmacol., 126, 223-229, 1986). The principle of the test is that mice exposed to novel objects (marbles) will bury them in the sawdust floor covering. Anxiolytics decrease the number of marbles buried at non-sedative doses. For the experiment, mice (Male Rj: NMRI mice, weighing 20-30 g (max. range per experiment=5 g) at the beginning of the experiments, obtained from Elevage Janvier, 53940 Le Genest-Saint-Isle, France) are individually placed in transparent plastic cages (33×21×18 cm) with 5 cm of sawdust on the floor. 25 marbles are grouped in the centre of the cage. The cage is covered with an inverted plastic cage. Each test cage, together with the marbles, is impregnated with mouse odor before-hand by leaving 10 mice in the cage for 15 minutes. These mice then play no further role in the experiment. The mice are treated with test substance intraperitoneally (i.p.) 30 min before the test. Administration volume: 10 ml/kg, different dosages are tested (e.g. 2 or more dosages selected from 1, 3, 10, 30 and 100 mg/kg). The test substance is tested for solubility by cold stirring of the highest intended dose for 10 minutes in physiological saline. If soluble, physiological saline serves as vehicle. If insoluble, the test substance is homogenized and dispersed using a mortar and a pestle in 0.2% hydroxypropylmethylcellulose (HPMC) in physiological saline which then serves as the vehicle. Unless indicated otherwise, doses are prepared W/V (stock) and then V/V (serial dilutions) for test substances in solution, and by separate weighings (W/V) for test substances in suspension. Preparations are made freshly for each day of administration and precautions are taken to preserve the homogeneity of suspensions (if applicable) during the period of administration. As control, vehicle is administered. The number of marbles covered by sawdust (2/3 or more) is then counted at the end of a 30 minute test. 15 mice are studied per group. The test is performed blind. Each test substance is evaluated at 3 doses, administered i.p. 30 minutes before the test, and compared with a vehicle control group. Fluoxetine (32 mg/kg i.p.), administered under the same experimental conditions, is used as reference substance. Each experiment therefore includes 5 groups. Data are analyzed by comparing treated groups with vehicle control using unpaired Student's t tests, using commercial software (Microsoft Excel®, SAS® Version 8.2, GB Stat® Version 6.5). With this test system, with compounds of the formula I a decrease of the number of marbles buried and thus an anxiolytic effect can be found, preferably a significant effect (p<0.01) by an i.p. dosage in the range from 1 to 100 mg/kg.
The test is performed as described above.

CC(C)C[C@@H](c1c(O)c(C=O)c(O)c(C=O)c1O)[C@@]1(C)CC[C@@H]2[C@@H]1[C@H]1[C@@H](CC[C@@]2(C)O)C1(C)C [Macrocarpale A, Macrocarpal A]
Number of marbles covered by sawdust, % change from control (Vehicle) (1 mg/kg i.p. −30 min): −5% | Number of marbles covered by sawdust, mean ± s.e.m. (1 mg/kg i.p. −30 min): 15.7 ± 2.5 NS | Number of marbles covered by sawdust, % change from control (Vehicle) (3 mg/kg i.p. −30 min): −37% | Number of marbles covered by sawdust, mean ± s.e.m. (3 mg/kg i.p. −30 min): 10.4 ± 2.3 NS | Number of marbles covered by sawdust, % change from control (Vehicle) (10 mg/kg i.p. −30 min): −53% | Number of marbles covered by sawdust, mean ± s.e.m. (10 mg/kg i.p. −30 min): 7.7 ± 2.4

CNCCC(Oc1ccc(C(F)(F)F)cc1)c1ccccc1 (centres unmarked) [FLUOXETINE, Fluoxetine, reference compound]
Number of marbles covered by sawdust, % change from control (Vehicle) (32 mg/kg i.p. −30 min): −100% | Number of marbles covered by sawdust, mean ± s.e.m. (32 mg/kg i.p. −30 min): 0.0 ± 0.0

Source: patent publication US20120058172A1, “PLANT EXTRACTS FOR USE IN BRAIN MODULATION” (Intermed Discovery GmbH, priority 2006, published 2012)
